Consider 20 compounds from patent US9371322B2, “Bicyclic aza-amides for treatment of psychiatric disorders” (MAX-PLANCK-GESELLSCHAFT ZUR FÖRDERUNG DER WISSENSCHAFTEN …, priority 2012, dated 2016).

SMILES strings stand for the structures.

One assay has as its target FKBP12 (Homo sapiens, UniProt P62942). In words: Competitive fluorescence polarization assay, binding to FKBP12. The following applies: for FKBP12 ligand efficiency (LE): LE=(ΔG)/N, ΔG=−RTlnKi, RT=0.6, N non-hydrogen atoms; for Ki: fluorescence polarization, fluorescent tracer 20 nM final, 30 min room temperature. As for the experimental part:
(§1) Binding of the bicyclic compounds to FKBPs was measured using a competitive fluorescence polarization
(§2) The compound library ligand was dissolved in DMSO to reach a 100-times concentrated stock solution. This was used for a 1:1 serial dilution in DMSO. […] For FKBP12, -51FK1 and -52FK1 the binding assays were performed in duplicates in the plate format. The competition curves were analyzed by using SigmaPlot11. Data were fitted to a four parameter logistic curve to deduce the IC50 values.
Background: In fluorescence polarisation assays a small probe gives low polarisation when free and higher when bound to something large.

In the next assay the target is T1, FKBP52 (Homo sapiens, UniProt Q02790).
T1 construct: 400 nM FKBP51FK1, 1600 nM FKBP52FK1
T1 sequence (Q02790 50-138 limits assumed): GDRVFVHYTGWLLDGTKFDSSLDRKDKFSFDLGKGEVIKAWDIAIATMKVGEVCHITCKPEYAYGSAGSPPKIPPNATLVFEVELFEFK
Put plainly: Competitive fluorescence polarization assay, binding to FKBP52. The note with it: for Ki: fluorescence polarization, FKBP52FK1, fluorescent tracer 20 nM final, 30 min room temperature; for FKBP52 ligand efficiency (LE): LE=(ΔG)/N, ΔG=−RTlnKi, RT=0.6, N non-hydrogen atoms. As for the experimental part: as §1, §2

In the next assay the target is T2, FKBP51 (Homo sapiens, UniProt Q13451).
T2 construct: 400 nM FKBP51FK1, 1600 nM FKBP52FK1
T2 sequence (Q13451 42-130 limits assumed): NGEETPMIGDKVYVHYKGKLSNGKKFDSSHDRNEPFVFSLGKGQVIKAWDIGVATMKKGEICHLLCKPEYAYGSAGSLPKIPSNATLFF
In words: Competitive fluorescence polarization assay, binding to FKBP51. The following applies: for FKBP51 ligand efficiency (LE): LE=(ΔG)/N, ΔG=−RTlnKi, RT=0.6, N non-hydrogen atoms; for Ki: fluorescence polarization, FKBP51FK1, fluorescent tracer 20 nM final, 30 min room temperature. As for the experimental part:
as §1, §2

FKBP12, sequence (P62942 whole entry): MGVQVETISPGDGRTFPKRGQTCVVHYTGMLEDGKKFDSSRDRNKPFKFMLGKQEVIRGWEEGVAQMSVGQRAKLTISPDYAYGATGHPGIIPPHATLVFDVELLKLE

As to `COc1ccc(OCCOC(=O)C2CCCCN2C(=O)C(=O)c2cc(OC)c(OC)c(OC)c2)cc1OC` (centres unmarked) [Compound 3a, 2-(3,4-dimethoxyphenoxyl)ethyl 1-(2-oxo-2-(3,4,5-trimethoxy-phenyl)acetyl)piperidine-2-carboxylate, reference compound], on FKBP12, the “FKBP12 ligand efficiency (LE)” value was 0.22 and the Ki (commonly a dissociation constant, usually derived from enzyme kinetics or from competition with a known ligand) was determined as 300 ± 30 nM. On FKBP52, this compound gave a Ki of more than 100000 nM.
`COc1ccc(OCCN2CCC3CCCC(C2=O)N3S(=O)(=O)c2cc(Cl)c(O)c(Cl)c2)cc1OC` (centres unmarked) [Compound 5i, 10-(3,5-dichloro-4-hydroxyphenylsulfonyl)-3-(2-(3,4-dimethoxyphenoxyl)ethyl)-3,10-diazabicyclo[4.3.1]decan-2-one]: on FKBP12, the “FKBP12 ligand efficiency (LE)” value turned out to be 0.24 and the affinity, expressed as Ki, was 400 ± 40 nM. On FKBP52, the “FKBP52 ligand efficiency (LE)” value came out at 0.21 and affinity was put at a Ki of 3500 ± 400 nM. For the same compound, at FKBP51, the “FKBP51 ligand efficiency (LE)” value was 0.23 and the Ki turned out to be 1000 ± 100 nM.
In the case of `COc1ccc(CCN2CCC3CCCC(C2=O)N3C(=O)C(=O)c2cc(OC)c(OC)c(OC)c2)cc1OC` (centres unmarked) [Compound 5h, 1-(3-(3,4-dimethoxyphenethyl)-2-oxo-3,10-diazabicyclo[4.3.1]-decan-10-yl)-2-(3,4,5-trimethoxyphenyl)ethane-1,2-dione, reference compound], on FKBP12, the “FKBP12 ligand efficiency (LE)” value is recorded as 0.21. The Ki was 1500 ± 40 nM on FKBP12, more than 100000 nM at FKBP52 and more than 100000 nM at FKBP51.
As for `CCOC(=O)C1CCCCN1S(=O)(=O)c1ccc2[nH]c(=O)sc2c1` (centres unmarked) [Compound 3d, ethyl 1-(2-oxo-2,3-dihydrobenzo[d]thiazol-6-ylsulfonyl)piperidine-2-carboxylate, reference compound], at FKBP12, the “FKBP12 ligand efficiency (LE)” value turned out to be 0.38 and the affinity corresponds to a Ki of 200 ± 4 nM. For the same compound, the inhibition constant Ki at FKBP52 was more than 100000 nM.
For the compound `O=C1NCC2CCCC1N2S(=O)(=O)c1ccc2[nH]c(=O)sc2c1` (centres unmarked) [Compound 4e, 6-(2-oxo-3,9-diazabicyclo[3.3.1]nonan-9-ylsulfonyl)benzo[d]thiazol-2(3H)-one], on FKBP12, the “FKBP12 ligand efficiency (LE)” value turned out to be 0.42 and the inhibition constant (Ki) is 100 ± 0.5 nM. Moreover, on FKBP52, the “FKBP52 ligand efficiency (LE)” value turned out to be 0.26 and affinity was put at a Ki of 46400 ± 3800 nM. In addition, on FKBP51, the “FKBP51 ligand efficiency (LE)” value amounted to 0.27 and the Ki was determined as 27000 ± 1700 nM.
Turning to `COc1ccc(OCCN2CC3CCCC(C2=O)N3S(=O)(=O)c2ccc3ncsc3c2)cc1OC` (centres unmarked) [Compound 4c, 9-(benzo[d]thiazol-6-ylsulfonyl)-3-(2-(3,4-dimethoxyphenoxyl)ethyl)-3,9-diazabicyclo[3.3.1]nonan-2-one], at FKBP12, the “FKBP12 ligand efficiency (LE)” value stood at 0.24 and the Ki worked out at 900 ± 2000 nM. Also, at FKBP51, the “FKBP51 ligand efficiency (LE)” value is 0.17 and the affinity corresponds to a Ki of 64800 ± 12300 nM.
As for `O=C1NCCC2CCCC1N2S(=O)(=O)c1ccc2[nH]c(=O)sc2c1` (centres unmarked) [Compound 5e, 6-(2-oxo-3,10-diazabicyclo[4.3.1]decan-10-ylsulfonyl)benzo[d]thiazol-2(3H)-one], on FKBP12, the “FKBP12 ligand efficiency (LE)” value worked out at 0.41 and affinity was put at a Ki of 60 ± 2 nM. For the same compound, at FKBP52, the “FKBP52 ligand efficiency (LE)” value is listed as 0.27 and the affinity corresponds to a Ki of 22600 ± 1000 nM. Also, on FKBP51, the “FKBP51 ligand efficiency (LE)” value turned out to be 0.29 and the affinity, expressed as Ki, was 9800 ± 500 nM.
Regarding `COc1ccc(OCCN2CC3CCCC(C2=O)N3S(=O)(=O)c2ccc3[nH]c(=O)sc3c2)cc1OC` (centres unmarked) [Compound 4d, 6-(3-(2-(3,4-dimethoxyphenoxyl)ethyl)-2-oxo-3,9-diazabicyclo[3.3.1]nonan-9-ylsulfonyl)benzo[d]thiazol-2(3H)-one], on FKBP12, the “FKBP12 ligand efficiency (LE)” value is recorded as 0.28 and the Ki amounted to 70 ± 0.4 nM. On FKBP51, the “FKBP51 ligand efficiency (LE)” value came out at 0.19 and the affinity, expressed as Ki, was 13900 ± 900 nM.
Take `O=C1C2CCCC(CN1c1ccccc1)N2S(=O)(=O)c1ccc(Cl)cc1` (centres unmarked) [Compound 4h]: the Ki at FKBP52 and on FKBP51 was more than 100000 nM throughout.
With `C=C[C@H]1CN(CCOc2ccc(OC)c(OC)c2)C(=O)[C@@H]2CCC[C@H]1N2S(=O)(=O)c1cc(Cl)cc(Cl)c1` [Compound 5k, (1S,5S,6R)-10-(3,5-dichlorophenylsulfonyl)-3-(2-(3,4-dimethoxyphenoxyl)ethyl)-5-vinyl-3,10-diazabicyclo[4.3.1]decan-2-one], the affinity on FKBP51, expressed as Ki, was 2100 ± 400 nM.
For `COc1ccc(OCCN2CCC3CCCC(C2=O)N3S(=O)(=O)c2ccc3ncsc3c2)cc1OC` (centres unmarked) [Compound 5c, 10-(benzo[d]thiazol-6-ylsulfonyl)-3-(2-(3,4-dimethoxyphenoxyl)ethyl)-3,10-diazabicyclo[4.3.1]decan-2-one], at FKBP12, the “FKBP12 ligand efficiency (LE)” value came to 0.29 and the inhibition constant Ki was 30 ± 7 nM. Also, on FKBP52, the “FKBP52 ligand efficiency (LE)” value is on record as 0.21 and the Ki worked out at 3600 ± 500 nM. For the same compound, on FKBP51, the “FKBP51 ligand efficiency (LE)” value is 0.22 and the inhibition constant Ki was determined as 2100 ± 200 nM.
Turning to `COc1ccc(OCCOC(=O)C2CCCCN2S(=O)(=O)c2cc(Cl)cc(Cl)c2)cc1OC` (centres unmarked) [Compound 3b, 2-(3,4-dimethoxyphenoxyl)ethyl 1-(3,5-dichlorophenyisulfonyl)-piperidine-2-carboxylate, reference compound], on FKBP12, the “FKBP12 ligand efficiency (LE)” value is 0.27 and the affinity corresponds to a Ki of 400 ± 6 nM. The compound further had a Ki at FKBP52 of more than 100000 nM.
In the case of `COc1ccc(OCCN2CCC3CCCC(C2=O)N3S(=O)(=O)c2cc(Cl)cc(Cl)c2)cc1OC` (centres unmarked) [Compound 5b, 10-(3,5-dichlorophenylsulfonyl)-3-(2-(3,4-dimethoxyphenoxy)ethyl)-3,10-diazabicyclo[4.3.1]decan-2-one], at FKBP12, the “FKBP12 ligand efficiency (LE)” value is 0.32 and the Ki was 10 ± 2 nM. On FKBP52, the “FKBP52 ligand efficiency (LE)” value worked out at 0.23 and the affinity corresponds to a Ki of 1600 ± 300 nM. In addition, at FKBP51, the “FKBP51 ligand efficiency (LE)” value is recorded as 0.23 and the Ki came to 1200 ± 200 nM.
On to `COc1ccc(OCCN2CC3CCCC(C2=O)N3C(=O)C(=O)c2cc(OC)c(OC)c(OC)c2)cc1OC` (centres unmarked) [Compound 4a, 1-(3-(2-(3,4-dimethoxyphenoxyl)ethyl)-2-oxo-3,9-diazabicyclo[3.3.1]nonan-9-yl)-2-(3,4,5-trimethoxyphenyl)ethane-1,2-dione, reference compound], for which, on FKBP12, the “FKBP12 ligand efficiency (LE)” value stood at 0.24 and the Ki was 200 ± 10 nM. For the same compound, at FKBP52, the “FKBP52 ligand efficiency (LE)” value is listed as 0.15 and the Ki was 79400 ± 20000 nM. Moreover, at FKBP51, the “FKBP51 ligand efficiency (LE)” value was 0.15 and the Ki came out at 51100 ± 7600 nM.
In the case of `COc1ccc(OCCN2CC3CCCC(C2=O)N3S(=O)(=O)c2cc(Cl)cc(Cl)c2)cc1OC` (centres unmarked) [Compound 4b, 9-(3,5-dichlorophenylsulfonyl)-3-(2-(3,4-dimethoxyphenoxyl)ethyl)-3,9-diazabicyclo[3.3.1]nonan-2-one], at FKBP12, the “FKBP12 ligand efficiency (LE)” value came out at 0.28 and the affinity corresponds to a Ki of 140 ± 10 nM. For the same compound, on FKBP52, the “FKBP52 ligand efficiency (LE)” value is listed as 0.20 and the inhibitory constant (Ki) was determined as 12200 ± 3700 nM. At FKBP51, the “FKBP51 ligand efficiency (LE)” value came out at 0.21 and affinity was put at a Ki of 8800 ± 1100 nM.
At FKBP51, `C=CC[C@@H]1/C=C(\C)C[C@H](C)C[C@H](OC)[C@H]2O[C@@](O)(C(=O)C(=O)N3CCCC[C@H]3C(=O)O[C@H](/C(C)=C/[C@@H]3CC[C@@H](O)[C@H](OC)C3)[C@H](C)[C@@H](O)CC1=O)[C@H](C)C[C@@H]2OC` [FK 506, FK506, reference compound] displayed a Ki of 28 ± 5 nM.
Consider `COc1ccc(OCCOC(=O)C2CCCCN2S(=O)(=O)c2ccc3ncsc3c2)cc1OC` (centres unmarked) [Compound 3c, 2-(3,4-dimethoxyphenoxyl)ethyl 1-(benzo[d]thiazol-6-ylsulfonyl)-piperidine-2-carboxylate, reference compound], for which the “FKBP12 ligand efficiency (LE)” value on FKBP12 was 0.28. Also, the results for the Ki on FKBP12 and on FKBP52 were 100 ± 0.03 nM and more than 100000 nM, respectively.
Take `CCC(C)(C)C(=O)C(=O)N1C2CCCC1C(=O)N(CCOc1ccc(OC)c(OC)c1)CC2` (centres unmarked) [Compound 5f, 1-(3-(2-(3,4-dimethoxyphenoxyl)ethyl)-2-oxo-3,10-diazabicyclo-[4.3.1]decan-10-yl)-3,3-dimethylpentane-1,2-dione, reference compound]: the “FKBP12 ligand efficiency (LE)” value at FKBP12 is recorded as 0.24. Moreover, the Ki is 1500 ± 100 nM on FKBP12, more than 100000 nM on FKBP52 and more than 100000 nM at FKBP51.
With `CCN1CC2CCCC(C1=O)N2C(=O)C(=O)c1cc(OC)c(OC)c(OC)c1` (centres unmarked) [Compound 4g, 1-(3-ethyl-2-oxo-3,9-diazabicyclo[3.3.1]nonan-9-yl)-2-(3,4,5-trimethoxyphenyl)ethane-1,2-dione, reference compound], at FKBP12, the “FKBP12 ligand efficiency (LE)” value is given as 0.26 and the Ki is 6300 ± 20 nM. Besides, the Ki on FKBP52 was more than 100000 nM.
As to `COc1ccc(OCCN2CCC3CCCC(C2=O)N3S(=O)(=O)c2ccc3[nH]c(=O)sc3c2)cc1OC` (centres unmarked) [Compound 5d, 6-(3-(2-(3,4-dimethoxyphenoxy)ethyl)-2-oxo-3,10-diazabicyclo[4.3.1]decan-10-ylsulfonyl)benzo[d]thiazol-2(3H)-one], on FKBP12, the “FKBP12 ligand efficiency (LE)” value amounted to 0.34 and the Ki turned out to be 1 ± 0.3 nM. At FKBP52, the “FKBP52 ligand efficiency (LE)” value amounted to 0.22 and the affinity corresponds to a Ki of 1200 ± 200 nM. On FKBP51, the “FKBP51 ligand efficiency (LE)” value amounted to 0.24 and the affinity, expressed as Ki, was 300 ± 20 nM.
